# Reference: publication PMC12356897 (Nature Communications, 2025)
# Key:
# [1] = system: 11 human cyclins (D1/2/3, E1/2, A1/2, B1/2/3 and F); assay: SIMBA, cyclin binding and specificity across the cyclin panel; format: cell-based; details: result in words; for cyclin specificity in SIMBA: 13-mer peptides centered on P0; for cyclin binding in the tiled library SIMBA screen: tiled 16-mer peptides
# human cyclin A2 = assay: Proteomic peptide phage display; format: binding; details: result in words; HD2 library of 16-mer peptides, four selection rounds
# human cyclin B1 = assay: Proteomic peptide phage display; format: binding; details: result in words; HD2 library of 16-mer peptides, four selection rounds
Sequence,cyclin specificity in SIMBA [1],other results
KAIRKLHFEDE [INSM1],bind to members of all four families,cyclin binding in the tiled library SIMBA screen [1]: cyclin D1-binding motif
VKTKKRLNFDDKV [CENPC],bound preferentially to cyclin A2,–
SNARRSLNFGGST [SCAPER],bound preferentially to cyclin A2,–
VSAVQKLDFSDTMVQQ [PKN2 peptide],–,"enrichment in ProP-PD selection, cyclin A2 (human cyclin A2): dominated; enrichment in ProP-PD selection, cyclin B1 (human cyclin B1): dominated"
YKVKRRLVFGADD [MuHV-1 M97],bind to members of all four families,–
HELFQRLDFDNDG [DNAH7],bound cyclin B1 specifically,–
PPARRRLRLSVDE [CDT1],bound preferentially to cyclin A2,–
DDIVSKLVFDFVE [DBF4],bound cyclin B1 specifically,–
PRARKRLELGNLG [ORC1],bound preferentially to cyclin A2,cyclin specificity in SIMBA ([1]; listed as ORC1 RxL): cyclin A-specific
QLRRQLSFSED [MICAL3],–,cyclin binding in the tiled library SIMBA screen [1]: strong B1-binding motif
SLVVGKLSFDSSP [CDC42EP1],bound cyclin B1 specifically,–
SKACRRLFGPVDS [CDKN1A (p21)],bound all cyclin types except B,–
